In PubChem BioAssay AID1645867 (Buhrlage Lab, Dana-Farber Cancer Institute and Novartis …, 2021):
pIC50: −log10 of the molar value. Calls of active or inactive are those of the source. The rule behind the calls is not given here.

Target: Ubiquitin carboxyl-terminal hydrolase isozyme L1 (Homo sapiens) (UniProt P09936)
Experiment: UCH-L1 deubiquitylase inhibitors, biochemical concentration-response, hit retest (AID 1645867)
Settings: recombinant UCHL1 deubiquitinase activity assay

Ubiquitin carboxyl-terminal hydrolase isozyme L1 (Homo sapiens), sequence (P09936 whole entry, looked up): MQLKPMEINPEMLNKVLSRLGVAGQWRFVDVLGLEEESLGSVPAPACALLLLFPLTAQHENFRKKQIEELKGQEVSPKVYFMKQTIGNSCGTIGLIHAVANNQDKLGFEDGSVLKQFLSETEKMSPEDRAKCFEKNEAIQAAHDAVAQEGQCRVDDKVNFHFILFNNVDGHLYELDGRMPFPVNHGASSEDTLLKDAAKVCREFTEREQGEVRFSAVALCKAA

pIC50 | IC50 | Compound
– | > 25 µM (inactive) | CC(C)NC(=O)Cn1ccn2nc(-c3ccc(Cl)cc3)cc2c1=O
– | > 25 µM (inactive) | COc1ccc(Cl)cc1NC(=O)c1cc(-c2ccccn2)n[nH]1
– | > 25 µM (inactive) | O=C(CSc1nnc(-c2cccnc2)n1-c1ccccc1)c1cccc([N+](=O)[O-])c1
– | > 25 µM (inactive) | O=C(NC1CC1)c1ccc(OCC2CCCN(C(=O)c3ccccc3)C2)cc1 (stereo not given)
– | > 25 µM (inactive) | O=C(Nc1ccc(Cl)c(Cl)c1)c1cccc(N2CCCCS2(=O)=O)c1
– | > 25 µM (inactive) | O=C(Nc1nc2ccccc2s1)C1CC(=O)N(c2ccccc2)C1 (stereo not given)
– | > 25 µM (inactive) | O=S1(=O)CCN(CC2CCCO2)c2c(Oc3ccccc3)nc(F)c(Cl)c21 (stereo not given)
– | > 25 µM (inactive) | COC(=O)Nc1cccn(Cc2c(Cl)cccc2Cl)c1=O
– | > 25 µM (inactive) | O=C(NCCc1nc2ccccc2n1CCOc1ccccc1Cl)C1CCCCC1
– | > 25 µM (inactive) | Cc1cc(OCC(=O)Nc2ccc3c(c2)NC(=O)CO3)ccc1Cl
– | > 25 µM (inactive) | O=C(CN1CCOCC1)Nc1ccc(NC(=O)c2ccc(Cl)cc2)cc1
– | > 25 µM (inactive) | Cc1ccc(NC(=O)c2cc(-c3ccccn3)nc3c(Cl)cccc23)nc1

Second part, the molecule before the results:

Compound | pIC50 | IC50
CC1O[C@@H](c2ccc3c(c2O)C(=O)C2=C(C3=O)[C@@]3(O)C(=O)C(O)[C@](C)(O)C[C@@]3(O)C=C2)CC[C@@H]1OC(=O)/C=C/C=C/C=C/[C@@H]1O[C@@](C)(C(=O)O)O[C@H]1C (stereo not given in full) | 5.34 | –
FC(F)(F)c1ccc(Nc2nnnc3ccccc23)cc1 | – | > 25 µM (inactive)
Cc1cccc(CCN2C(=O)CCc3c(C)nc(C4CCCNC4)nc32)c1 (stereo not given) | – | > 25 µM (inactive)
O=C(CCc1nc2sc3c(c2c(=O)[nH]1)CCCCC3)Nc1ccc(F)cc1F | – | > 25 µM (inactive)
Cc1cccc(-c2nc(NC(=O)COc3ccc(F)cc3)no2)c1 | – | > 25 µM (inactive)
COc1cc(Cl)c(NC(=O)c2cc(-c3ccccn3)n[nH]2)c(OC)c1 | – | > 25 µM (inactive)
O=c1[nH]oc(O)c1-c1ncc(C(F)(F)F)cc1Cl | – | > 25 µM (inactive)
Cc1nn(-c2ccccc2)c2c1N=C1C(Cl)=CC(Cl)=CN1C21C(=O)Nc2ccccc21 (stereo not given) | 5.43 | –
N#Cc1cccc(NC(=O)Nc2cccn(Cc3ccccc3F)c2=O)c1 | 4.77 | –
COc1ccc(C(=O)COC(=O)c2ccccc2NS(=O)(=O)c2ccc(O)c([N+](=O)[O-])c2)cc1 | – | > 25 µM (inactive)
Cc1cc(C)c(NC(=O)Cn2c(SCc3cccc(F)c3)nc3cccnc32)c(C)c1 | – | > 25 µM (inactive)
CC[C@@H](C(=O)[C@@H](C)[C@@H](O)[C@H](C)CCc1ccc(C)c(O)c1C(=O)O)[C@@H]1O[C@](CC)([C@H]2CC[C@](O)(CC)[C@H](C)O2)C[C@@H]1C | – | > 25 µM (inactive)
COc1ccc(-c2cnn(-c3ccc(NC(=O)Nc4cccc(C(F)(F)F)c4)cc3)c2)cc1 | – | > 25 µM (inactive)
CC(C)CC[C@H]1O[C@@H](CC(=O)O)Cc2cc3c(c(O)c21)C(=O)c1sc(=O)n(C)c1C3=O | – | > 25 µM (inactive)
CS(=O)(=O)n1nc(NCc2ccc(F)cc2)nc1NCc1ccc(F)cc1 | – | > 25 µM (inactive)
O=C(Cn1c(=O)c2ccccc2c2ccccc21)Nc1ccc2c(c1)OCO2 | – | > 25 µM (inactive)
O=C1c2ccccc2C(=O)c2c(O)c(O)cc(O)c21 | 5.71 | –
COc1ccccc1-c1nc(-c2cn(-c3ccc(F)cc3)nn2)no1 | – | > 25 µM (inactive)
COc1ccc(NC(=O)Cn2cc(C(=O)c3ccc(Cl)cc3)c(=O)c3cc(F)ccc32)cc1 | – | > 25 µM (inactive)
CC(C)(NC(=O)C1CCCCC1)c1nc2c(c(C(N)=O)n1)OCCO2 | – | > 25 µM (inactive)
Cc1ccc(NC(=O)Nc2ccc(C)n(CC(=O)Nc3ccc(C)cc3C)c2=O)cc1 | – | > 25 µM (inactive)
Cn1c2ccccc2c(=O)c2c(=O)n(-c3cccc(Cl)c3)c(-c3cccs3)nc21 | – | > 25 µM (inactive)
COc1ccc(OCC(=O)N(Cc2cccc3ccccc23)c2ccccn2)cc1 | – | > 25 µM (inactive)
